From PMC8286840, “Identifying SARS-CoV-2 antiviral compounds by screening for small molecule inhibitors of Nsp3 papain-like protease” (Biochemical Journal, 2021)
Counter-ions that a name gives are not always drawn. Like-named read-outs stand apart in the source and are kept apart here.

Columns and labels:
[1] = molecular target: T1, SARS-CoV-2 PLpro (nsp3 1564–1878) (Severe acute respiratory syndrome coronavirus 2, UniProt P0DTD1); experiment: biochemical; set-up: FRET-quenched peptide (Pro3) cleavage by PLpro, 10 min pre-incubation, slope over 20 min, normalised to no-compound control; settings: low concentration screen, read-out: % of control remaining
[2] = molecular target: T1, SARS-CoV-2 PLpro (nsp3 1564–1878); experiment: biochemical; set-up: FRET-quenched peptide (Pro3) cleavage by PLpro, 10 min pre-incubation, slope over 20 min, normalised to no-compound control; settings: high concentration screen, read-out: % of control remaining

CN1C[C@H](C(=O)N[C@]2(C)O[C@@]3(O)[C@@H]4CCCN4C(=O)[C@H](Cc4ccccc4)N3C2=O)C[C@@H]2c3cccc4[nH]cc(c34)C[C@H]21 [Dihydroergotamine mesylate] was tested, and the remaining activity at 1.25 µM ([1]; Well no.=1701) was 98.4% and the remaining activity at 3.75 µM ([2]; Well no.=1701) was 98.9%.

For Cc1c(Cn2c(C)nc3c(C(=O)O)cc(N4CCOCC4)cc32)cccc1C(F)(F)F [GSK2636771], the remaining activity at 1.25 µM ([1]; Well no.=5178) was 93.1% and the remaining activity at 3.75 µM ([2]; Well no.=5178) was 96.9%.

O=C1NC(=O)/C(=C/c2ccc(-c3ccc(F)cc3O)o2)S1 [AS-252424] showed a remaining activity at 1.25 µM ([1]; Well no.=2947) of 93.9% and a remaining activity at 3.75 µM ([2]; Well no.=2947) of 97.2%.

In the case of CCCCC/C=C\C/C=C\C/C=C\C/C=C\CCCC(=O)O [Arachidonic acid], the remaining activity at 1.25 µM ([1]; Well no.=4301) is reported as 104%, the remaining activity at 1.25 µM ([1]; Well no.=4446) is reported as 95.8% and the remaining activity at 3.75 µM ([2]; Well no.=4301) is reported as 101%. It also gave a remaining activity at 3.75 µM ([2]; Well no.=4446) of 97.5%.

CCCCCCOC(=O)NC(=N)c1ccc(NCc2nc3cc(C(=O)N(CCC(=O)OCC)c4ccccn4)ccc3n2C)cc1 [Dabigatran Etexilate] showed a remaining activity at 1.25 µM ([1]; Well no.=8192) of 95.6% and a remaining activity at 3.75 µM ([2]; Well no.=8192) of 82.3%.

In the case of O=C1CCC(c2ccc(-n3ccnc3)cc2)=NN1 [Imazodan], the remaining activity at 1.25 µM ([1]; Well no.=764) is reported as 97.3% and the remaining activity at 3.75 µM ([2]; Well no.=764) is reported as 97.7%.

For CCCCCCCCCCCCc1ccc(S(=O)(=O)Nc2nncs2)cc1 [PHT-427], the remaining activity at 1.25 µM ([1]; Well no.=4959) was 96.5% and the remaining activity at 3.75 µM ([2]; Well no.=4959) was 98.1%.

For C[C@@H](C(=O)O)N(C)C(=O)OCC1c2ccccc2-c2ccccc21 [Fmoc-N-Me-Ala-OH], the remaining activity at 1.25 µM ([1]; Well no.=7976) was 91.3% and the remaining activity at 3.75 µM ([2]; Well no.=7976) was 92.8%.

In the case of COC(=O)[C@H]1[C@H]2C[C@@H]3c4[nH]c5cc(OC)ccc5c4CCN3C[C@H]2C[C@@H](OC(=O)c2cc(OC)c(OC)c(OC)c2)[C@@H]1OC [Reserpine], the remaining activity at 1.25 µM ([1]; Well no.=3833) is reported as 97% and the remaining activity at 3.75 µM ([2]; Well no.=3833) is reported as 94.7%.

N=C(N)N/N=C/c1c(Cl)cccc1Cl [Guanabenz] was tested, and the remaining activity at 1.25 µM ([1]; Well no.=1693) was 105% and the remaining activity at 3.75 µM ([2]; Well no.=1693) was 105%.

CC(=O)NCCCC(=O)O [4-Acetamidobutanoic acid] was tested, and the remaining activity at 1.25 µM ([1]; Well no.=6149) was 110% and the remaining activity at 3.75 µM ([2]; Well no.=6149) was 106%.

COc1ccc(CCN(C)CCCC(C#N)(c2cc(OC)c(OC)c(OC)c2)C(C)C)cc1OC (racemic) gave a remaining activity at 1.25 µM ([1]; Well no.=1026) of 94.4% and a remaining activity at 3.75 µM ([2]; Well no.=1026) of 98.1%.

COc1ccc(S(=O)(=O)Nc2nc(-c3cccc([N+](=O)[O-])c3)cs2)cc1OC [Ro 61-8048] showed a remaining activity at 1.25 µM ([1]; Well no.=5865) of 109% and a remaining activity at 3.75 µM ([2]; Well no.=5865) of 106%.

Oc1ccc2c3c1O[C@H]1c4oc5ccccc5c4C[C@@]4(O)[C@@H](C2)N(CC2CC2)CC[C@]314 [Naltriben methanesulfonate hydrate] gave a remaining activity at 1.25 µM ([1]; Well no.=1698) of 95.8% and a remaining activity at 3.75 µM ([2]; Well no.=1698) of 95.9%.

CC1(C)C2CCC1(C(=O)O)C(=O)C2 (stereo not drawn) [Ketopinic acid] showed a remaining activity at 1.25 µM ([1]; Well no.=3353) of 92.9% and a remaining activity at 3.75 µM ([2]; Well no.=3353) of 96.9%.

Compound O=C(O)CC(O)C(=O)O (stereo not drawn) [Malic acid] has a remaining activity at 1.25 µM ([1]; Well no.=6637) of 106% and a remaining activity at 3.75 µM ([2]; Well no.=6637) of 110%.

In the case of CCOC(=O)c1c(C)[nH]c(/C=C2\C(=O)Nc3ccccc32)c1C [VEGF Receptor 2 Kinase Inhibitor I], the remaining activity at 1.25 µM ([1]; Well no.=2645) is reported as 97.1% and the remaining activity at 3.75 µM ([2]; Well no.=2645) is reported as 102%.

For N#Cc1ccc([C@H]2CCc3cncn32)c(F)c1 [LCI699], the remaining activity at 1.25 µM ([1]; Well no.=8526) was 98.2% and the remaining activity at 3.75 µM ([2]; Well no.=8526) was 98.2%.

C[C@@H]1CC[C@@]2(OC1)O[C@H]1C[C@H]3[C@@H]4CC=C5C[C@@H](O)CC[C@]5(C)[C@H]4CC[C@]3(C)[C@H]1[C@@H]2C [Diosgenin] gave a remaining activity at 1.25 µM ([1]; Well no.=5192) of 96.6% and a remaining activity at 3.75 µM ([2]; Well no.=5192) of 94.9%.

Compound Nc1ncnc2c1ncn2C1CCCC1 [9-cyclopentyladenine] has a remaining activity at 1.25 µM ([1]; Well no.=176) of 93.3% and a remaining activity at 3.75 µM ([2]; Well no.=176) of 91.5%.

OC[C@@H](O)[C@@H](O)[C@H](O)[C@@H](O)CO [D-Sorbitol] gave a remaining activity at 1.25 µM ([1]; Well no.=6253) of 115% and a remaining activity at 3.75 µM ([2]; Well no.=6253) of 112%.

CCN1C(=O)C=CC1=O [N-Ethylmaleimide] showed a remaining activity at 1.25 µM ([1]; Well no.=461) of 102%, a remaining activity at 1.25 µM ([1]; Well no.=4101) of 88.4% and a remaining activity at 3.75 µM ([2]; Well no.=461) of 101%. The remaining activity at 3.75 µM ([2]; Well no.=4101) was 95.8%.
